Assays:
[1] = clinical development discontinued; cited from earlier work
[2] = test system: αCGRP-induced skin blood perfusion increase; experiment: CGRP-induced mice model of vasodilatation (Laser Doppler skin blood perfusion, right ear); assay type: in vivo, BALB/c mice; conditions: for decrease of the CGRP flush (AUC skin blood perfusion 0 to 15 min): topical, 90 min prior to αCGRP 20 μg/kg i.v.
Description: (§1) This study has been conducted on BALB/c mice, 5 mice per group have been used.
Body temperature was maintained at 35° C.-37° C. using an automated heating pad. Images were obtained from Laser Doppler perfusion imaging PIM3 (Perimed, France). For each mouse, the skin blood perfusion was evaluated every minute on the right ear. The laser beam of the PIM3 scanned a skin area of 2×2 cm. Prior to the treatment, 2 scans were performed.
The duration of the recording was 22 minutes in total.
The blood perfusion is mapped as colour coded images at intervals of 1 min. For each mouse ear, the area corresponding to the internal part of the ear is defined and adjusted for each image. From this selected area, we take the highest of the first two images as the background of blood perfusion (I ref). The background value is then subtracted from the next images of the kinetic.
The software calculates the erythematous surface (S) and the mean of the blood perfusion intensity (I) in this surface for the region of interest for all the images. […] For each time of kinetic, the relative area of blood perfusion is calculated as follow: Relative area of perfusion=(I/I ref)×S

[3] = test system: imiquimod (Aldara) induced psoriasiform skin inflammation; experiment: Imiquimod induced psoriasiform mice model; assay type: in vivo, Balb/c mice; conditions: CD10192/41 at 2% topical twice daily, 2 h before and 6 h after Aldara
Description: Imiquimod psoriasiform model has been induced by daily topical application of Aldara (3.18 mg of imiquimod) for 3 or 7 days on the shaved back skin of Balb/c mice. The pharmacodynamic analysis were performed by using a transcriptional analysis at D4, a histological analysis at D4 and D8, a cells analysis at D8 and a Cytokines analysis at D8. • 1.2. Compounds • 1.2.1. Imiquimod
Imiquimod is sold under the name Aldara™ 5% by 3M-Pharmaceutical. 63.5 mg of Aldara cream is applied on the back skin of the mice, representing 3.2 mg of active compound. • 1.2.2. MK3207 (CD10192/41)
MK3207 compound is dissolved in PG/Ethanol 96 (30/70) and applied twice daily 2 h 00 before and 6 h 00 after Aldara treatment. • 1.2.3. Vehicles
PG/Ethanol (30/70) is used as a vehicle. • 1.2.4. Positive Control
CD0153F (Betamethasone valerate) at 0.01% (0.210 mM) in acetone by topical route is used as positive control. • 1.3. Mice
Balb/c mice strain has been used for the study. These animals have been obtained from controlled breeding and were specific pathogen free. The animals have been provided by Janvier SAS, France. • 1.4. Protocol […]
At day 4 skin biopsies were collected for quantifying gene expression of the inflammatory response via RT-PCR and for measuring epidermis thickness via histological stained slides (HE). […]

[4] = Skin concentration two hours after single topical application on the mouse ear; assay type: in vivo, BALB/c mice; conditions: 0.003% to 3%
Source text: as §1
At the end of the scan, blood is collected from the abdominal artery on anesthetized animals. The animals are then euthanatized and the treated ear collected and weighted. Plasma and ear are snapped frozen.

[5] = test system: Dermatophagoides farinae (Der f)-induced AD-like skin inflammation; experiment: Der f-induced atopic dermatitis mouse model; assay type: in vivo, Balb/c mice
Description: Der f has been purchased from Greer Laboratories and a Der f solution has been prepared in 70% DMSO in MilliQ water. 375 μg of Der f has been applied during 7 weeks on the left ear of mice. Compounds to be tested were applied every day of the week except during the weekend, on the Der f treated ear from week 4 until day 44. • 1.2. Compounds • 1.2.1. MK3207 (CD10192/41) MK3207 (CD10192/41) has been provided by Galderma and 3% of MK3207 (CD10192/41) solutions in ethanol have been prepared. • 1.2.2. Triamcinolone Acetonide Triamcinolone acetonide has been chosen as positive control for the Der f model. 0.01% of triamcinolone acetonide solution in ethanol has been used. • 1.2.3. Ethanol Ethanol 100 has been chosen as a vehicle to solubilize the compounds. • 1.3. Mice Balb/c mice strain has been used for the study. These animals have been obtained from controlled breeding and were specific pathogen free. The animals have been provided by Janvier SAS, France. • 1.4. Protocol AD-like lesions have been induced by topical application of 375 μl of Der f solution on each side of the left ear for 7 weeks at day 1, day 8, day 15, day 22, day 29, day 36 and day 43. Mice have been treated from day 20 to day 43 five days by week with the different solutions administrated by the topical route. Measurement of ear swelling has been monitored 24 hours after each allergen application. After day 19, ear swelling has been daily measured before compound application. After mouse euthanasia, at Day 44 the left ear has been collected and has been washed in ethanol 70% and has been rinsed in PBS. Skin biopsies of the left ear, have then been collected for cytokines profile quantification with Luminex technique and for the quantification of the eosinophil peroxidase thanks to the ELISA method. Draining lymph nodes have been collected and cultivated a whole night restimulated or not with 0.5 mg/ml of Der f extract before quantifying the number of Der f specific lymphocytes T producing INFγ.

[6] = MK3207 3% topical, day 44, ear skin biopsies, Luminex

O=C(CN1C(=O)C2(CCCC2)NC[C@H]1c1cc(F)cc(F)c1)Nc1ccc2c(c1)C[C@@]1(C2)C(=O)Nc2ncccc21 [MK3207, 2-[(8R)-8-(3,5-difluorophenyl)-10-oxo-6,9-diazaspiro[4.5]dec-9-yl]-N-[(2R)-2′-oxo-1,1′,2′,3-tetrahydrospiro[indene-2,3′-pyrrolo[2,3-b]pyridin]-5-yl]acetamide]
toxicity associated with oral use [1]: severe hepatotoxicity | decrease of the CGRP flush (AUC skin blood perfusion 0 to 15 min) ([2]; MK3207 0.003% in ethanol, NS, p=0.2259): 31% | decrease of the CGRP flush (AUC skin blood perfusion 0 to 15 min) ([2]; MK3207 0.03% in ethanol, NS, p=0.0567): 49% | decrease of the CGRP flush (AUC skin blood perfusion 0 to 15 min) ([2]; MK3207 0.3% in ethanol, p=0.0112): 70% | decrease of the CGRP flush (AUC skin blood perfusion 0 to 15 min) ([2]; MK3207 3% in ethanol, p=0.0083): 80% | inhibition of αCGRP-induced increase in skin blood perfusion, dose dependence ([2]; topical 0.003% to 3%, 90 minutes prior to αCGRP, p=0.0017): inhibited this increase in a dose-dependent manner | reduction of the epidermis thickness ([3]; day 4): 33% | reduction of the number of IL17-production within the γδ T cells ([3]; day 8): 55% | detection in skin samples [4]: detected in skin samples at all doses tested | eosinophil peroxidase production (EPX) ([5]; MK3207 3% topical, day 44, ear skin biopsies, ELISA): reduction | production of IL17A [5, 6]: significantly reduced | production of IL-4 [5, 6]: significantly reduced | production of IL-5 [5, 6]: significantly reduced | production of IL-13 [5, 6]: significantly reduced | production of TNFα [5, 6]: significantly reduced | production of IFNγ by lymphocyte T cells ([5]; draining lymph nodes restimulated with Der f, MK3207 3%, triamcinolone acetonide 0.01% topical): decrease | ear swelling ([5]; topical MK3207, as soon as day 27 with a similar effect until day 43): decrease | ear swelling / ear edema ([5]; topical in ethanol, MK3207 3% (day 44), triamcinolone acetonide 0.01%): decrease

NCCCC[C@H](NC(=O)[C@@H](Cc1cc(Br)c(O)c(Br)c1)NC(=O)N1CCC(N2Cc3ccccc3NC2=O)CC1)C(=O)N1CCN(c2ccncc2)CC1 [olcegepant, reference compound]
toxicity associated with oral use [1]: severe hepatotoxicity

O=C(N[C@@H]1CC[C@@H](c2cccc(F)c2F)CN(CC(F)(F)F)C1=O)N1CCC(n2c(=O)[nH]c3ncccc32)CC1 [telcagepant, reference compound]
toxicity associated with oral use [1]: severe hepatotoxicity

— patent US20180185360A1, “CGRP RECEPTOR ANTAGONIST COMPOUNDS FOR TOPICAL TREATMENT OF SKIN DISORDERS” (GALDERMA RESEARCH & DEVELOPMENT, priority 2015, published 2018)
